Experimental data as given in EP3692978A1, “NOVEL METHOD” (DSM IP Assets B.V., priority 2019, dated 2020).
Like-named read-outs stand apart in the source and are kept apart here. Where a SMILES comes first, the peptide text is derived from it. [ ]: non-standard residue; d: D form. The star is where a group is joined. Bz = O=C(c1ccccc1)*; NPr2 = CCCN(CCC)*

Test system: human hair follicles
Assay type: cell-based
Conditions: hair shaft elongation after 4 days versus vehicle (DMSO) control
Source text: Microdissection of human hair follicles: Human scalp skin samples containing mainly anagen VI hair follicles were obtained from elective face-lift plastic surgery. Informed consent was obtained. Hair follicles were truncated below the dermis, while the remaining hair bulb was separated from the dermal/subcutaneous tissue and placed in appropriate culture medium. Before the experiment, each hair follicle underwent a stringent selection, that is operated by controlling the hair shaft elongation following 18 hrs of organ culture, as well as the general organ morphology. Only the hair follicles that grew at least 0.19 ± 0.02 mm/18 hrs were used for the experiment.
Treatment: The hair growth inhibition of Bz-Gly-His-D-Phe-Arg-D-Trp-N(Pr)2 *2MSA in the concentrations as indicated in table 2 was assessed versus control, i.e. versus a treatment with the vehicle (i.e. DMSO) alone. Evaluation of hair growth inhibition: pictures of the hair follicles in culture were taken at baseline and after 4 days and the hair shaft elongation was measured to determine the hair growth. Table 2: Results

SMILES: CCCN(CCC)C(=O)[C@@H](Cc1c[nH]c2ccccc12)NC(=O)[C@H](CCCNC(=N)N)NC(=O)[C@@H](Cc1ccccc1)NC(=O)[C@H](Cc1c[nH]cn1)NC(=O)CNC(=O)c1ccccc1 [Bz-Gly-His-D-Phe-Arg-D-Trp-N(Pr)2 *2MSA] (Bz-GH[dF]R[dW]-NPr2)
- % hair growth inhibition (1 nM, p = 0.067 (paired t-test)): 12%
- % hair growth inhibition (100 nM, p = 0.019 (paired t-test)): 29%
